Results taken from ChEMBL document CHEMBL1201862, “PubChem BioAssay data set” (2004).
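Cells were grown in 96-well plates and exposed to each compound for 48 hours at five concentrations; endpoints were interpolated linearly between bracketing concentrations, or set to the highest concentration if not reached. At the GI50, growth is halved.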 Activity calls are given as the source filed them. Cut-off read from the data, not from the text of the source: active = GI50 up to about 1.1 µM and inactive = higher.

Legend:
Experiment in all cases: NCI-60 cell line screen, 48 h
786-0 = test system: 786-0
OVCAR-3 = test system: OVCAR-3
LOX IMVI = test system: LOX IMVI
SN12C = test system: SN12C
EKVX = test system: EKVX
SK-MEL-2 = test system: SK-MEL-2
TK-10 = test system: TK-10
OVCAR-4 = test system: OVCAR-4
OVCAR-5 = test system: OVCAR-5
M14 = test system: M14
HOP-92 = test system: HOP-92
Malme-3M = test system: Malme-3M
IGROV-1 = test system: IGROV-1
HCC 2998 = test system: HCC 2998
SK-MEL-5 = test system: SK-MEL-5
SK-MEL-28 = test system: SK-MEL-28
T47D = test system: T47D
NCI/ADR-RES = test system: NCI/ADR-RES
SR = test system: SR
MDA-MB-435 = test system: MDA-MB-435

## C/C(=N\O)c1ccc(Nc2c3ccccc3nc3occc23)cc1
786-0
  GI50: 0.51 µM (active)
OVCAR-3
  GI50: 0.695 µM (active)
LOX IMVI
  GI50: 0.29 µM (active)
SN12C
  GI50: 1.44 µM (inactive)
EKVX
  GI50: 5.82 µM (inactive)
SK-MEL-2
  GI50: 0.196 µM (active)
TK-10
  GI50: 1.17 µM (inactive)
OVCAR-4
  GI50: 0.762 µM (active)
OVCAR-5
  GI50: 2.75 µM (inactive)
M14
  GI50: 0.236 µM (active)
HOP-92
  GI50: 12.2 µM (inactive)
Malme-3M
  GI50: 11.5 µM (inactive)
IGROV-1
  GI50: 0.231 µM (active)
HCC 2998
  GI50: 0.316 µM (active)
SK-MEL-5
  GI50: 0.222 µM (active)
SK-MEL-28
  GI50: 0.659 µM (active)
T47D
  GI50: 0.553 µM (active)
NCI/ADR-RES
  GI50: 0.115 µM (active)
SR
  GI50: 0.023 µM (active)
MDA-MB-435
  GI50: 0.0246 µM (active)

## CCOC(=O)c1cc2ncccc2c2ccccc12
786-0
  GI50: > 100 µM (inactive)
OVCAR-3
  GI50: > 100 µM (inactive)
LOX IMVI
  GI50: > 100 µM (inactive)
SN12C
  GI50: > 100 µM (inactive)
EKVX
  GI50: > 100 µM (inactive)
SK-MEL-2
  GI50: > 100 µM (inactive)
TK-10
  GI50: > 100 µM (inactive)
OVCAR-4
  GI50: > 100 µM (inactive)
OVCAR-5
  GI50: > 100 µM (inactive)
M14
  GI50: > 100 µM (inactive)
HOP-92
  GI50: > 100 µM (inactive)
Malme-3M
  GI50: > 100 µM (inactive)
IGROV-1
  GI50: > 100 µM (inactive)
HCC 2998
  GI50: > 100 µM (inactive)
SK-MEL-5
  GI50: > 100 µM (inactive)
SK-MEL-28
  GI50: > 100 µM (inactive)
T47D
  GI50: > 100 µM (inactive)
NCI/ADR-RES
  GI50: > 100 µM (inactive)
SR
  GI50: > 100 µM (inactive)
MDA-MB-435
  GI50: > 100 µM (inactive)

## COc1ccc(C2SC(=N)Nc3c2c(C)nn3C(=O)c2ccncc2)cc1OC (stereo not drawn)
786-0
  GI50: > 10 µM (inactive)
OVCAR-3
  GI50: > 10 µM (inactive)
LOX IMVI
  GI50: > 10 µM (inactive)
SN12C
  GI50: > 10 µM (inactive)
EKVX
  GI50: > 10 µM (inactive)
SK-MEL-2
  GI50: > 10 µM (inactive)
TK-10
  GI50: > 10 µM (inactive)
OVCAR-4
  GI50: > 10 µM (inactive)
OVCAR-5
  GI50: > 10 µM (inactive)
M14
  GI50: > 10 µM (inactive)
HOP-92
  GI50: > 10 µM (inactive)
Malme-3M
  GI50: > 10 µM (inactive)
IGROV-1
  GI50: > 10 µM (inactive)
HCC 2998
  GI50: > 10 µM (inactive)
SK-MEL-5
  GI50: > 10 µM (inactive)
SK-MEL-28
  GI50: > 10 µM (inactive)
T47D
  GI50: > 10 µM (inactive)
NCI/ADR-RES
  GI50: > 10 µM (inactive)
SR
  GI50: > 10 µM (inactive)
MDA-MB-435
  GI50: > 10 µM (inactive)

## CN1c2c(O)nc(N)nc2NCC1CCNc1ccc(C(=O)NC(CCC(=O)O)C(=O)O)cc1 (stereo not drawn)
786-0
  GI50: 4.59 µM (inactive)
OVCAR-3
  GI50: 857 µM (inactive)
LOX IMVI
  GI50: 4.06 µM (inactive)
SN12C
  GI50: 540 µM (inactive)
EKVX
  GI50: 1260 µM (inactive)
SK-MEL-2
  GI50: 1470 µM (inactive)
TK-10
  GI50: 1030 µM (inactive)
OVCAR-4
  GI50: 893 µM (inactive)
OVCAR-5
  GI50: 1520 µM (inactive)
M14
  GI50: 10.3 µM (inactive)
HOP-92
  GI50: 1490 µM (inactive)
Malme-3M
  GI50: 1410 µM (inactive)
IGROV-1
  GI50: 1030 µM (inactive)
HCC 2998
  GI50: 993 µM (inactive)
SK-MEL-5
  GI50: 1120 µM (inactive)
SK-MEL-28
  GI50: 695 µM (inactive)
T47D
  GI50: 1860 µM (inactive)
NCI/ADR-RES
  GI50: 1920 µM (inactive)
SR
  GI50: 25.5 µM (inactive)
MDA-MB-435
  GI50: 104 µM (inactive)

## COC1(C)OC[C@@]2(C)OC(C)C1(C)C2O[Si](C(C)C)(C(C)C)C(C)C (stereo partly drawn)
786-0
  GI50: 43.2 µM (inactive)
OVCAR-3
  GI50: 20.9 µM (inactive)
LOX IMVI
  GI50: 20.7 µM (inactive)
SN12C
  GI50: 23 µM (inactive)
EKVX
  GI50: 24.9 µM (inactive)
SK-MEL-2
  GI50: 21 µM (inactive)
TK-10
  GI50: 25.4 µM (inactive)
OVCAR-4
  GI50: 30.3 µM (inactive)
OVCAR-5
  GI50: 26.6 µM (inactive)
M14
  GI50: 37.6 µM (inactive)
HOP-92
  GI50: 24.9 µM (inactive)
Malme-3M
  GI50: 18 µM (inactive)
IGROV-1
  GI50: 28.7 µM (inactive)
HCC 2998
  GI50: 20.1 µM (inactive)
SK-MEL-5
  GI50: 20.9 µM (inactive)
SK-MEL-28
  GI50: 38.4 µM (inactive)
T47D
  GI50: 27.6 µM (inactive)
NCI/ADR-RES
  GI50: 22.1 µM (inactive)
SR
  GI50: 27.6 µM (inactive)
MDA-MB-435
  GI50: 28.7 µM (inactive)

## O=[N+]([O-])c1cccc2nc3ccccc3c(NCCN(CCO)CCO)c12
786-0
  GI50: 0.00429 µM (active)
OVCAR-3
  GI50: 0.00536 µM (active)
LOX IMVI
  GI50: 0.00701 µM (active)
SN12C
  GI50: 0.00537 µM (active)
EKVX
  GI50: 0.00731 µM (active)
SK-MEL-2
  GI50: 0.00527 µM (active)
TK-10
  GI50: 0.00836 µM (active)
OVCAR-4
  GI50: 0.00453 µM (active)
OVCAR-5
  GI50: 0.00501 µM (active)
M14
  GI50: 0.00338 µM (active)
HOP-92
  GI50: 0.00447 µM (active)
Malme-3M
  GI50: 0.00296 µM (active)
IGROV-1
  GI50: 0.00578 µM (active)
HCC 2998
  GI50: 0.00235 µM (active)
SK-MEL-5
  GI50: 0.00192 µM (active)
T47D
  GI50: 0.00367 µM (active)
NCI/ADR-RES
  GI50: 0.128 µM (active)
SR
  GI50: 0.00123 µM (active)
MDA-MB-435
  GI50: 0.00141 µM (active)

## O=[N+]([O-])C[C@@]12O[C@]3(O)C4C5CC(C6C5C3C61)C42 (stereo partly drawn)
786-0
  GI50: > 100 µM (inactive)
OVCAR-3
  GI50: > 100 µM (inactive)
LOX IMVI
  GI50: > 100 µM (inactive)
SN12C
  GI50: > 100 µM (inactive)
EKVX
  GI50: > 100 µM (inactive)
SK-MEL-2
  GI50: > 100 µM (inactive)
TK-10
  GI50: > 100 µM (inactive)
OVCAR-4
  GI50: > 100 µM (inactive)
OVCAR-5
  GI50: > 100 µM (inactive)
M14
  GI50: > 100 µM (inactive)
HOP-92
  GI50: > 100 µM (inactive)
Malme-3M
  GI50: > 100 µM (inactive)
IGROV-1
  GI50: > 100 µM (inactive)
HCC 2998
  GI50: < 0.01 µM (active)
SK-MEL-5
  GI50: > 100 µM (inactive)
SK-MEL-28
  GI50: > 100 µM (inactive)
T47D
  GI50: > 100 µM (inactive)
NCI/ADR-RES
  GI50: > 100 µM (inactive)
SR
  GI50: 80.2 µM (inactive)
MDA-MB-435
  GI50: > 100 µM (inactive)

## CC(C)(C)[Si](C)(C)OCC1OC(n2ccc(=O)[nH]c2=O)C(O[Si](C)(C)C(C)(C)C)/C1=C/C#N (stereo not drawn)
786-0
  GI50: 4.37 µM (inactive)
OVCAR-3
  GI50: 7.29 µM (inactive)
LOX IMVI
  GI50: 5 µM (inactive)
SN12C
  GI50: 3.78 µM (inactive)
EKVX
  GI50: 24.4 µM (inactive)
SK-MEL-2
  GI50: 0.757 µM (active)
TK-10
  GI50: 12.7 µM (inactive)
OVCAR-4
  GI50: > 29.2 µM (inactive)
OVCAR-5
  GI50: 20.4 µM (inactive)
M14
  GI50: 10.9 µM (inactive)
HOP-92
  GI50: 5.93 µM (inactive)
Malme-3M
  GI50: 12.8 µM (inactive)
IGROV-1
  GI50: 40.8 µM (inactive)
HCC 2998
  GI50: 5.48 µM (inactive)
SK-MEL-5
  GI50: 3.07 µM (inactive)
SK-MEL-28
  GI50: 1.49 µM (inactive)
T47D
  GI50: 3.93 µM (inactive)
NCI/ADR-RES
  GI50: 4.01 µM (inactive)
SR
  GI50: 3.5 µM (inactive)
MDA-MB-435
  GI50: 3.94 µM (inactive)

## CN(C)CCCNC(=O)c1c(O)c2ccccc2[nH]c1=O
786-0
  GI50: > 100 µM (inactive)
OVCAR-3
  GI50: > 100 µM (inactive)
LOX IMVI
  GI50: > 100 µM (inactive)
SN12C
  GI50: > 100 µM (inactive)
EKVX
  GI50: > 100 µM (inactive)
SK-MEL-2
  GI50: > 100 µM (inactive)
TK-10
  GI50: > 100 µM (inactive)
OVCAR-4
  GI50: > 100 µM (inactive)
OVCAR-5
  GI50: > 100 µM (inactive)
HOP-92
  GI50: 38.4 µM (inactive)
Malme-3M
  GI50: > 100 µM (inactive)
IGROV-1
  GI50: 42 µM (inactive)
HCC 2998
  GI50: > 100 µM (inactive)
SK-MEL-5
  GI50: > 100 µM (inactive)
SK-MEL-28
  GI50: > 100 µM (inactive)
T47D
  GI50: > 100 µM (inactive)
NCI/ADR-RES
  GI50: 88.5 µM (inactive)
SR
  GI50: > 100 µM (inactive)
MDA-MB-435
  GI50: > 100 µM (inactive)

## N#Cc1nc(C2CCC2)oc1N
786-0
  GI50: > 100 µM (inactive)
OVCAR-3
  GI50: > 100 µM (inactive)
LOX IMVI
  GI50: > 100 µM (inactive)
SN12C
  GI50: > 100 µM (inactive)
EKVX
  GI50: > 100 µM (inactive)
SK-MEL-2
  GI50: > 100 µM (inactive)
TK-10
  GI50: > 100 µM (inactive)
OVCAR-4
  GI50: > 100 µM (inactive)
OVCAR-5
  GI50: > 100 µM (inactive)
M14
  GI50: > 100 µM (inactive)
HOP-92
  GI50: > 100 µM (inactive)
Malme-3M
  GI50: > 100 µM (inactive)
IGROV-1
  GI50: > 100 µM (inactive)
HCC 2998
  GI50: > 100 µM (inactive)
SK-MEL-5
  GI50: > 100 µM (inactive)
SK-MEL-28
  GI50: > 100 µM (inactive)
T47D
  GI50: > 100 µM (inactive)
NCI/ADR-RES
  GI50: > 100 µM (inactive)
SR
  GI50: > 100 µM (inactive)
MDA-MB-435
  GI50: > 100 µM (inactive)
